Source: patent publication US7541466B2, “Tetrahydroisoquinoline derivatives for treating protein trafficking diseases” (Genzyme Corporation, priority 2003, dated 2009)

Legend:
ΔF508 CFTR = molecular target: T1, ΔF508 CFTR (Homo sapiens, UniProt P13569, DEL508-508); assay: MQAE chloride transport assay in C127 cells expressing ΔF508 CFTR; assay type: cell-based, murine; conditions: for EC50: chloride transport activity, C127 ΔF508 CFTR cells, MQAE; for % of Maximal Response: plateau level in activity at high compound concentration; for % of Maximal Response / Emax: as a percentage of the low temperature response; for Emax: C127, plateau level in activity at high compound concentration, read-out: % of Maximal Response
T1 construct: expressed in transfected cells
Description: C127 cells are a murine mammary epithelial cell line obtained from ATCC (#CRL 1616, American Type Culture Collection, Manassas, Va.). C127 cells were transfected with a bovine papilloma virus-based eukaryotic expression vector containing genes for ΔF508 CFTR and neomycin resistance whose expression was driven by a metallothionein promoter. Clonal cell populations resistant to G418 and positive for staining with anti-CFTR antibody were identified.
C127 cells expressing ΔF508 CFTR were grown in microtiter plates in DMEM (Dulbecco's Modified Eagle Medium, Hyclone, Logan, Utah) supplemented with fetal bovine serum, antibiotics, and glutamine in a 37° C., 5% CO2 atmosphere. Once confluent, the cells were loaded overnight with the disclosed compounds and a fluorescent dye sensitive to chloride ion concentration, N-(ethoxycarbonylmethyl)-6-methoxy quinolinium bromide (MQAE) (Verkman, Am. J. Physiol. 259 C375-C388 (1990)).
The following day, cells were washed with chloride-containing buffer to remove extracellular MQAE and to quench intracellular MQAE fluorescence. Chloride buffer was flicked out and replaced with nitrate buffer with added forskolin and IBMX (isobutylmethylxanthine) to stimulate CFTR activity. […] Buffers were adjusted to pH 7.4 and contained: 10 mM HEPES (N-2-Hydroxyethylpiperazine-N′-2-ethanesulfonic acid), 2.4 mM K2HPO4, 0.6 mM KH2PO4, 1.0 mM CaSO4, 1.0 mM MgSO4, 150 mM NaCl or NaNO3, and 25 mM glucose.
The increase in MQAE fluorescence as a function of time was followed using 360 nm excitation and 460 nm emission wavelengths. Fluorescence increased as chloride flowed out of cells through CFTR and the rate of increase in fluorescence over the first five minutes was taken as a measure of chloride transport activity.
Cells were treated with mixtures of up to 100 compounds per well for ca. 18 hours before the assay for chloride transport activity. […] Dose-response curves were generated and compounds were ranked based on their EC50 values and maximal responses (the plateau level in activity at high compound concentration, as a percentage of the low temperature response).

[1] = tested on: wild-type C57black6/J mice; conditions: female wild-type mice; 4 g/kg/day dose for 2 days; previously measured; cited from earlier work

T1 sequence (P13569 with tags, fused parts or gaps DEL508-508): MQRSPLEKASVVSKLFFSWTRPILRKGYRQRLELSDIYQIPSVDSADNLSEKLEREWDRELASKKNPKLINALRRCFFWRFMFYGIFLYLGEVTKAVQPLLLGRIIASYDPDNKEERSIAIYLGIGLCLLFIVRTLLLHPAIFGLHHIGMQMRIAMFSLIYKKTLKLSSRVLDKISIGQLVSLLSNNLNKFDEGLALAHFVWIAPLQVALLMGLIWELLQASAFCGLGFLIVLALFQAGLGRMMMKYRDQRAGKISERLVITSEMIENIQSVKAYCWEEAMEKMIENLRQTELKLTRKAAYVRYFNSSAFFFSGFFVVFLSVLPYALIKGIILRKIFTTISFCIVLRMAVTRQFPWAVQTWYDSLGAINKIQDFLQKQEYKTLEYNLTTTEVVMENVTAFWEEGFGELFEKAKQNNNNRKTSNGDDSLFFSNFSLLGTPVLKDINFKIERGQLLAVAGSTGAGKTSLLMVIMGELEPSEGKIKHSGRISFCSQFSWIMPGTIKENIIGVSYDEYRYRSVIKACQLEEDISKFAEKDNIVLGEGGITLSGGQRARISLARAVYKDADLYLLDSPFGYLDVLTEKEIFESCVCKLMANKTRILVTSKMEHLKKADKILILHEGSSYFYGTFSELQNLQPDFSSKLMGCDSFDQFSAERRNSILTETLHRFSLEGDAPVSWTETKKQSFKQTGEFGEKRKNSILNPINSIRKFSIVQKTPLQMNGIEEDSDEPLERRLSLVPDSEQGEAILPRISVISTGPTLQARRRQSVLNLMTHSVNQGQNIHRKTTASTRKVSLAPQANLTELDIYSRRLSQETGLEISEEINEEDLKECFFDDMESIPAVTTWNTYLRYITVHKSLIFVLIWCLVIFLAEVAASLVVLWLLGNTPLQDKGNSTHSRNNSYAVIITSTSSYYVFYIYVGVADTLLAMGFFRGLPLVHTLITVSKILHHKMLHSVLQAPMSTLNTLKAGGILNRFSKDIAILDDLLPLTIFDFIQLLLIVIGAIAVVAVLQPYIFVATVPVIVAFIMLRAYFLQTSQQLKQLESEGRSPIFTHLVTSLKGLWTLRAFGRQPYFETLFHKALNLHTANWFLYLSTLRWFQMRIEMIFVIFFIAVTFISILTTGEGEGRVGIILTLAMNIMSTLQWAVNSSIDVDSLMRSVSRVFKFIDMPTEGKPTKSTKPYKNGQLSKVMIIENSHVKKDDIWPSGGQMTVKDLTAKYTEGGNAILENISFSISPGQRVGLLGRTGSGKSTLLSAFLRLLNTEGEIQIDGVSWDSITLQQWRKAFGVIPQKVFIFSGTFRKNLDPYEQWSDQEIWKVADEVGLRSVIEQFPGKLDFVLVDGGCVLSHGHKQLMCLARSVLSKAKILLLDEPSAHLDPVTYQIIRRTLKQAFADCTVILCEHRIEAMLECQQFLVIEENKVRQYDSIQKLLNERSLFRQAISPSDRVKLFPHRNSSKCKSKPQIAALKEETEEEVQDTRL

Structure (SMILES) | EC50 (ΔF508 CFTR) | % of Maximal Response (ΔF508 CFTR) | Emax (ΔF508 CFTR) | increase of forskolin response in RPD [1]
CCCCCc1ccc(NC(=O)[C@@H]2Cc3ccccc3CN2C(=O)c2cccc(CN3CCOCC3)c2)cc1 [Compound 123] | 95 nM | – | 63% | –
CCCCCc1ccc(NC(=O)[C@@H]2Cc3ccccc3CN2C(=O)c2ccc(OC)c(OC)c2)cc1 [Compound 127] | 180 nM | – | 83% | –
CCCCCc1ccc(NC(=O)[C@@H]2Cc3ccccc3CN2C(=O)c2ccc(OC)c(OCCN3CCOCC3)c2)cc1 [Compound 128, (S)-2-[4-Methoxy-3-(2-morpholin-4-yl-ethoxy)benzoyl]-1,2,3,4-tetrahydroisoquinoline-3-carboxylic acid (4-pentylphenyl)amide] | 110 nM | – | 63% | –
CCCCCc1ccc(NC(=O)[C@@H]2Cc3ccccc3CN2C(=O)c2ccc3c(c2)OCCO3)cc1 [Compound 135] | 290 nM | – | 56% | –
CCCCCc1ccc(NC(=O)[C@@H]2Cc3ccccc3CN2C(=O)c2cc(OCCN3CCOCC3)cc(OC(C)C)c2)cc1 [Compound 137] | 180 nM | – | 69% | –
CCCCCc1ccc(NC(=O)[C@@H]2Cc3ccccc3CN2C(=O)c2cc(OC)c(OC)c(OC)c2)cc1 [Compound 138] | 93 nM | – | 67% | –
CCCCCc1ccc(NC(=O)[C@@H]2Cc3ccccc3CN2C(=O)c2cc(OC(C)C)c(OC)cn2)cc1 [Compound 145, (S)-2-(4-Isopropoxy-5-methoxypyridine-2-carbonyl)-1,2,3,4-tetrahydroisoquinoline-3-carboxylic acid(4-pentylphenyl)amide] | 25 nM | 75% | – | –
CCCCCc1ccc(NC(=O)[C@@H]2Cc3ccccc3CN2C(=O)c2cc(Oc3cccnc3)ccn2)cc1 [Compound 147] | 41 nM | – | 32% | –
C[N+](C)(C)[O-] [trimethylamine oxide, trimethylamine-N-oxide] | – | – | – | 7.5 mV

Second part, led by results:

EC50 (ΔF508 CFTR) | % of Maximal Response (ΔF508 CFTR) | Emax (ΔF508 CFTR) | Structure (SMILES) | increase of forskolin response in RPD [1]
6.3 nM | 80% | – | CCCCCc1ccc(NC(=O)[C@@H]2Cc3ccccc3CN2C(=O)c2cccc(Oc3ccc(OCC)c(Oc4ccccc4)c3)c2)cc1 [Compound 121, (S)-2-[3-(4-Ethoxy-3-phenoxyphenoxy)benzoyl]-1,2,3,4-tetrahydroisoquinoline-3-carboxylic acid (4-pentylphenyl)amide] | –
10 nM | – | 83% | CCCCCc1ccc(NC(=O)[C@@H]2Cc3ccccc3CN2C(=O)c2cccc(OC(C)(C)C)c2)cc1 [Compound 122] | –
14 nM | – | 70% | CCCCCc1ccc(NC(=O)[C@@H]2Cc3ccccc3CN2C(=O)c2cc(Cl)cc(Cl)c2)cc1 [Compound 133] | –
4.4 nM | – | 84% | CCCCCc1ccc(NC(=O)C2Cc3ccccc3CN2C(=O)c2cccc(OC(C)CC)c2)cc1 (stereo not shown) [Compound 140] | –
12 nM | – | 84% | CCCCCc1ccc(NC(=O)[C@@H]2Cc3ccccc3CN2C(=O)c2cccc(OC(CC)CC)c2)cc1 [Compound 141] | –
8 nM | – | 88% | CCCCCc1ccc(NC(=O)[C@@H]2Cc3ccccc3CN2C(=O)c2cccc(OC(C)C(C)C)c2)cc1 (stereo partly shown) [Compound 142] | –
5.9 nM | – | 85% | CCCCCc1ccc(NC(=O)[C@@H]2Cc3ccccc3CN2C(=O)c2ccc(C)c(OC(C)C)c2)cc1 [Compound 143] | –
